Assay results published in ChEMBL document CHEMBL1221281, “Discovery of 2-(4-((1H-1,2,4-triazol-1-yl)methyl)-5-(4-bromophenyl)-1-(2-chlorophenyl)-1H-pyrazol-3-yl)-5-tert-butyl-1,3,4-thiadiazole (GCC2680) as a potent, selective and orally efficacious cannabinoid-1 receptor antagonist” (Bioorg Med Chem, 2010).
Calls of active or inactive are those of the source. The calls are words filed in the database; no cut-off is given here.

Legend:
Rattus norvegicus [1] = assay: Antiobesity activity in diet-induced obesity Sprague-Dawley rat model assessed as reduction of body weight administered at 10 mg/kg, po qd for 13 days; type: functional; set-up: scale not given: the % may be the effect or the level left
Rattus norvegicus [2] = assay: Acute toxicity in rat assessed as mortality at 2000 mg/kg, po; type: organism-based; set-up: dose 2000 mg/kg, route oral; conditions: in vivo
Rattus norvegicus [3] = assay: Acute toxicity in rat assessed as mortality at 250 mg/kg, po qd for 7 days; type: organism-based; set-up: dose 250 mg/kg, route oral; conditions: in vivo, 168 h
Rattus norvegicus [4] = assay: AUC (0 to infinity) in Sprague-Dawley rat at 5 mg/kg, po; type: ADME, organism-based, Plasma; set-up: time infinity, dose 5 mg/kg, route oral; conditions: in vivo
Mus musculus [5] = assay: Antiobesity activity in diet-induced obesity C57BL/6 mouse model assessed as reduction of body weight at 10 mg/kg, po qd for 14 days; type: functional; set-up: scale not given: the % may be the effect or the level left
Mus musculus [6] = assay: Antiobesity activity in po dosed diet-induced obesity C57BL/6 mouse model assessed as reduction of body weight administered qd for 13 days; type: functional, organism-based
[7] = Mutagenic activity in Salmonella Typhimurium TA100 assessed as number of spontaneous and drug-induced revertants after 48 hrs by Ames test; type: toxicity; conditions: salmonella enterica subsp. enterica serovar typhimurium
[8] = Cytotoxicity against human HuH7 cells; type: cell-based; conditions: Huh-7
Rattus norvegicus [9] = assay: Acute toxicity in rat assessed as mortality at 125 mg/kg, po qd for 7 days; type: organism-based; set-up: dose 125 mg/kg, route oral; conditions: in vivo, 168 h
Mus musculus [10] = assay: Antiobesity activity in diet-induced obesity C57BL/6 mouse model assessed as reduction of body weight at 10 mg/kg, po qd for 13 days; type: functional; set-up: scale not given: the % may be the effect or the level left
Rattus norvegicus [11] = assay: Acute toxicity in rat assessed as mortality at 1000 mg/kg, po qd for 7 days; type: organism-based; set-up: dose 1000 mg/kg, route oral; conditions: in vivo, 168 h
Cytochrome P450 3A4 = Cytochrome P450 3A4 (Homo sapiens, UniProt P08684); assay: Inhibition of CYP3A4 in human liver microsomes after 30 mins; type: ADME, Microsome
Cannabinoid receptor 2 = Cannabinoid receptor 2 (Homo sapiens, UniProt P34972); assay: Displacement of [3H]WIN-55212-2 from human CB2 receptor expressed in CHO-K1 cells after 1 hr by liquid scintillation counting; type: cell-based
Mus musculus [12] = assay: Antiobesity activity in po dosed diet-induced obesity C57BL/6 mouse model assessed as reduction mean white adipocytes diameter qd for 14 days; type: functional, organism-based
[13] = Acute toxicity in po dosed rat assessed as mortality; type: organism-based; conditions: in vivo
HEK293 = assay: Cytotoxicity against human HEK293 cells; type: cell-based
Nucleic Acid = assay: Induction of DNA damage up to 50 uM after 2 hrs by comet assay; type: nucleic-acid assay
Mus musculus [14] = assay: Antiobesity activity in diet-induced obesity C57BL/6 mouse model assessed as reduction of body weight at 20 mg/kg, po qd for 13 days; type: functional; set-up: scale not given: the % may be the effect or the level left
[15] = Clearance in Sprague-Dawley rat at 1 mg/kg, iv; type: ADME, organism-based; set-up: dose 1 mg/kg, route intravenous; conditions: in vivo
[16] = Tmax in Sprague-Dawley rat at 5 mg/kg, po; type: ADME, organism-based; set-up: dose 5 mg/kg, route oral; conditions: in vivo
[17] = Cmax in Sprague-Dawley rat at 5 mg/kg, po; type: ADME, organism-based; set-up: dose 5 mg/kg, route oral; conditions: in vivo
Rattus norvegicus [18] = assay: Clast in Sprague-Dawley rat at 1 mg/kg, iv; type: ADME, organism-based; set-up: dose 1 mg/kg, route intravenous; conditions: in vivo
Rattus norvegicus [19] = assay: Clast in Sprague-Dawley rat at 5 mg/kg, po; type: ADME, organism-based; set-up: dose 5 mg/kg, route oral; conditions: in vivo
Mus musculus [20] = assay: Antidiabetic activity in db/db mouse at 10 mg/kg, po qd for 14 days; type: functional, organism-based; set-up: dose 10 mg/kg
Mus musculus [21] = assay: Antidiabetic activity in diet-induced obesity mouse model at 10 mg/kg, po qd for 14 days; type: functional, organism-based; set-up: dose 10 mg/kg
[22] = molecular target: Voltage-gated inwardly rectifying potassium channel KCNH2 (Homo sapiens, UniProt Q12809); assay: Inhibition of human ERG at holding potential of -80 mV to +40 mV
Rattus norvegicus [23] = assay: Acute toxicity in po dosed rat; type: organism-based; conditions: in vivo
[24] = Half life in Sprague-Dawley rat at 1 mg/kg, iv; type: ADME, organism-based; set-up: dose 1 mg/kg, route intravenous; conditions: in vivo
Rattus norvegicus [25] = assay: Acute toxicity in rat assessed as mortality at 1500 mg/kg, po; type: organism-based; set-up: dose 1500 mg/kg, route oral; conditions: in vivo
Rattus norvegicus [26] = assay: AUC (0 to infinity) in Sprague-Dawley rat at 1 mg/kg, iv; type: ADME, organism-based, Plasma; set-up: time infinity, dose 1 mg/kg, route intravenous; conditions: in vivo
Mus musculus [27] = assay: Antidiabetic activity in ob/ob mouse at 10 mg/kg, po qd for 14 days; type: functional, organism-based; set-up: dose 10 mg/kg
[28] = Cmax in Sprague-Dawley rat at 1 mg/kg, iv; type: ADME, organism-based; set-up: dose 1 mg/kg, route intravenous; conditions: in vivo
Vero = assay: Cytotoxicity against african green monkey Vero cells; type: cell-based; conditions: Chlorocebus sabaeus
[29] = Selectivity ratio of IC50 for human CB2 receptor to IC50 for CB1 receptor in Sprague-Dawley rat cerebellum; type: tissue-based
[30] = Ratio of drug level in brain to plasma in Sprague-Dawley rat; type: ADME
[31] = Oral bioavailability in Sprague-Dawley rat at 5 mg/kg, po; type: ADME, organism-based; conditions: in vivo
HCT-116 = assay: Cytotoxicity against human HCT116 cells; type: cell-based
Cannabinoid receptor 1 = Cannabinoid receptor 1 (Rattus norvegicus, UniProt P20272)
Description: Displacement of [3H]CP-55940 from CB1 receptor in Sprague-Dawley rat cerebellum after 1 hr by liquid scintillation counting

Cytochrome P450 2D6 = Cytochrome P450 2D6 (Homo sapiens, UniProt P10635); assay: Inhibition of CYP2D6 in human liver microsomes after 30 mins; type: ADME, Microsome
Cytochrome P450 2C9 = Cytochrome P450 2C9 (Homo sapiens, UniProt P11712); assay: Inhibition of CYP2C9 in human liver microsomes after 30 mins; type: ADME, Microsome
[32] = Half life in Sprague-Dawley rat at 5 mg/kg, po; type: ADME, organism-based; set-up: dose 5 mg/kg, route oral; conditions: in vivo
Rattus norvegicus [33] = assay: Acute toxicity in rat assessed as mortality at 500 mg/kg, po qd for 7 days; type: organism-based; set-up: dose 500 mg/kg, route oral; conditions: in vivo, 168 h
Cytochrome P450 1A2 = molecular target: T1, Cytochrome P450 1A2 (Homo sapiens, UniProt P05177); assay: Inhibition of CYP1A2 in human liver microsomes after 30 mins; type: ADME, Microsome
T1 sequence (P05177 whole entry): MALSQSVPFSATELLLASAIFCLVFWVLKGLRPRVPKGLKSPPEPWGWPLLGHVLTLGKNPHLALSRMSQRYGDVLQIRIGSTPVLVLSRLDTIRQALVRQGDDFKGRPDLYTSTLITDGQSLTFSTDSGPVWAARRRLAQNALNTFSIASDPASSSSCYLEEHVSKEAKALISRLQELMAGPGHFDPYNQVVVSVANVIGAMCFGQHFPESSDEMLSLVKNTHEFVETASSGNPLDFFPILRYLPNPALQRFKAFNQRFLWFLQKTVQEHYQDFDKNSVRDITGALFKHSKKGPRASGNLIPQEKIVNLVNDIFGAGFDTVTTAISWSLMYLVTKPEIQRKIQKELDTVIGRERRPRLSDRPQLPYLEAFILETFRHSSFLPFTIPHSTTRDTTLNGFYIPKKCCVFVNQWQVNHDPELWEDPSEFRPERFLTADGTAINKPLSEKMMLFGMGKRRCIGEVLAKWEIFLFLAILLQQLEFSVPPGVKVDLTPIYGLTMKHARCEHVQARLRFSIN

Mus musculus [34] = assay: Antiobesity activity in diet-induced obesity C57BL/6 mouse model assessed as reduction of body weight at 3 mg/kg, po qd for 13 days; type: functional

Sequence of Voltage-gated inwardly rectifying potassium channel KCNH2 (Q12809 whole entry): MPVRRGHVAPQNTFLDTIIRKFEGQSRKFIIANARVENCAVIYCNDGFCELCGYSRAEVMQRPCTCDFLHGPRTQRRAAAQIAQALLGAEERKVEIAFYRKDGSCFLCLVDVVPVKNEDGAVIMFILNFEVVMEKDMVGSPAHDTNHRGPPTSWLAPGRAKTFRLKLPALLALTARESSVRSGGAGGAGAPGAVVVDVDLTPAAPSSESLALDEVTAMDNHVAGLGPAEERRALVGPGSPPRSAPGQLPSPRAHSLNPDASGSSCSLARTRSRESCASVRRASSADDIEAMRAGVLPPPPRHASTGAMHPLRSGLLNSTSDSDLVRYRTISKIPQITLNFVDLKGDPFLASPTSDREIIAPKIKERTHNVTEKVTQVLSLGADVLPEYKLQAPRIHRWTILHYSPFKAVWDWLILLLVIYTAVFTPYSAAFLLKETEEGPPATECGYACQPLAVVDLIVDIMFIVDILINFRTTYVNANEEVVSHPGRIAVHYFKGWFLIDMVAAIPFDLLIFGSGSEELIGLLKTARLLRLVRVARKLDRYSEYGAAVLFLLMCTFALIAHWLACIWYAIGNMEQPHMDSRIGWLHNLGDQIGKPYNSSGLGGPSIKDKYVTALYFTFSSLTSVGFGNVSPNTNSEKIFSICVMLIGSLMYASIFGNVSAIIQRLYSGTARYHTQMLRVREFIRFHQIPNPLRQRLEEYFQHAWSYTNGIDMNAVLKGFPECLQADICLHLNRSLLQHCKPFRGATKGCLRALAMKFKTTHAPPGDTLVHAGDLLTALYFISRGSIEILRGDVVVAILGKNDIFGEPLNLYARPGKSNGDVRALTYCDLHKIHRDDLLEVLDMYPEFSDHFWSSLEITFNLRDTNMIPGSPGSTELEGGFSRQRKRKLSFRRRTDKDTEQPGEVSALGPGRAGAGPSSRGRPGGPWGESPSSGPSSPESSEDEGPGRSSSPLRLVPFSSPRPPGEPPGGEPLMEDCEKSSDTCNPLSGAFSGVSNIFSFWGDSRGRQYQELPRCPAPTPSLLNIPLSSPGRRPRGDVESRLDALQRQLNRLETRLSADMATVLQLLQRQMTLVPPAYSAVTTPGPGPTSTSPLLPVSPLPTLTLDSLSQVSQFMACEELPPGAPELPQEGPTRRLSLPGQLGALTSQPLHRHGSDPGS
Sequence of Cannabinoid receptor 2 (P34972 whole entry): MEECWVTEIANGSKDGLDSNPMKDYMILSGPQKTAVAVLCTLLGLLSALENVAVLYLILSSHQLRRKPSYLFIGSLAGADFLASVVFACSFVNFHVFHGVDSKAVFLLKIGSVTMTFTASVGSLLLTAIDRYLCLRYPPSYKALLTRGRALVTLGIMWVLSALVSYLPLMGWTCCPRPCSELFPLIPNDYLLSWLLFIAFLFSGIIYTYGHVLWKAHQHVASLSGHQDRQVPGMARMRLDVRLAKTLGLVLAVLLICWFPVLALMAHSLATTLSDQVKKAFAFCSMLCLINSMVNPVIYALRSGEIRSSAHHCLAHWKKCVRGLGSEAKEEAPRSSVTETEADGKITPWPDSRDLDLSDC
Sequence of Cannabinoid receptor 1 (P20272 whole entry): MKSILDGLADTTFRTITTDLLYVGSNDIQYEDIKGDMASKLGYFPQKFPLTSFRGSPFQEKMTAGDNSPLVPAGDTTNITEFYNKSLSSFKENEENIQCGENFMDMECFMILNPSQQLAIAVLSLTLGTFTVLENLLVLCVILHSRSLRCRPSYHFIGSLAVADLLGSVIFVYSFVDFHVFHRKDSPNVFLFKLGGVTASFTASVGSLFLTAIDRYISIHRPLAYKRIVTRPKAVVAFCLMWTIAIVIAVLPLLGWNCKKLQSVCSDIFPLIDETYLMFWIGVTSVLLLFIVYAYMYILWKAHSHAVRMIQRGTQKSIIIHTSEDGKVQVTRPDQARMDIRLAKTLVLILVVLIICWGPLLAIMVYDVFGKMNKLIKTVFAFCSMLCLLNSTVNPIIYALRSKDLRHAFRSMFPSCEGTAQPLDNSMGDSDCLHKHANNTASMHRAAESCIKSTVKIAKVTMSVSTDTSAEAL
Sequence of Cytochrome P450 2D6 (P10635 whole entry): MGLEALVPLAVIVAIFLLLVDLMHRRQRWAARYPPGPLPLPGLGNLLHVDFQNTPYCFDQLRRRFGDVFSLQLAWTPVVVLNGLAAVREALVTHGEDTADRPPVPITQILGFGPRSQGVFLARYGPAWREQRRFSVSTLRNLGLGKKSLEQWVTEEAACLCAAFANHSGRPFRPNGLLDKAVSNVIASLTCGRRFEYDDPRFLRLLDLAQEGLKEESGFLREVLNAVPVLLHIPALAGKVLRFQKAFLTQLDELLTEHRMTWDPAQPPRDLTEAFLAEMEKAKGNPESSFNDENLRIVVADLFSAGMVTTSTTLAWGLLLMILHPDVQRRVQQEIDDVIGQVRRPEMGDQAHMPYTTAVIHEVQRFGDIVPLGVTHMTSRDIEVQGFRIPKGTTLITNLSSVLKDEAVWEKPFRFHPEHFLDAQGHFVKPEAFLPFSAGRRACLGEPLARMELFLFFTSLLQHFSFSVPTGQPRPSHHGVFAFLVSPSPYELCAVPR
Sequence of Cytochrome P450 3A4 (P08684 whole entry): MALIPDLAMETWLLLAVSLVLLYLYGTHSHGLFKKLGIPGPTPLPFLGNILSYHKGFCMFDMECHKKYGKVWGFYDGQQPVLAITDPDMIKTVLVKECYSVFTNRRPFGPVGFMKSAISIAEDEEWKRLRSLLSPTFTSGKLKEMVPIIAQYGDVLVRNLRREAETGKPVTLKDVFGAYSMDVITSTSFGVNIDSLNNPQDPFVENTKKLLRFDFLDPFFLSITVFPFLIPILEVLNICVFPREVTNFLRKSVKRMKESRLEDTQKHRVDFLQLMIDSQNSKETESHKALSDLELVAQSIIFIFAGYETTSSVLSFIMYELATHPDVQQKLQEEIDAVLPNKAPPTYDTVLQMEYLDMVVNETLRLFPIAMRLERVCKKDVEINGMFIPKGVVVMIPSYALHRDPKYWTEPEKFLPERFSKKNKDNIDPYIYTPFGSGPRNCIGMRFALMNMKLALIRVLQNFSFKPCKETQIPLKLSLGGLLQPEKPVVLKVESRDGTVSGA
Sequence of Cytochrome P450 2C9 (P11712 whole entry): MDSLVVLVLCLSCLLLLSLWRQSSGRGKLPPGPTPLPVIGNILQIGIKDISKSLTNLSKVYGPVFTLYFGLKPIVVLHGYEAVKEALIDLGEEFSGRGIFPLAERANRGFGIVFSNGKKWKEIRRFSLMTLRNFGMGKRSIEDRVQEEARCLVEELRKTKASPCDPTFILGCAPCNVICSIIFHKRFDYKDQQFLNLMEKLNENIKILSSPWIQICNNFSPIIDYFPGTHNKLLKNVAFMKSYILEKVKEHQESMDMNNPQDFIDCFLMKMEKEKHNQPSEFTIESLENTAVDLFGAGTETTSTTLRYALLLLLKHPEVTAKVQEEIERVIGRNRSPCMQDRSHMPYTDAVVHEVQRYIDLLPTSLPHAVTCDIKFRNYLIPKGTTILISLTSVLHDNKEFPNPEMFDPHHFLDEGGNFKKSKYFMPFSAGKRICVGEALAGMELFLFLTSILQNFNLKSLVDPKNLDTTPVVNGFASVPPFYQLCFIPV

CC(C)(C)c1nnc(-c2nn(-c3ccccc3Cl)c(-c3ccc(Br)cc3)c2Cn2cncn2)s1
Activity (Rattus norvegicus [1]): 15.59%
Activity (Rattus norvegicus [2]): Non-toxic
Activity (Rattus norvegicus [3]): Non-toxic
AUC (Rattus norvegicus [4]): 369.72 min/µg/mL
Activity (Mus musculus [5]): 32.55%
Activity (Mus musculus [6]): Dose-dependent effect
Activity [7]: Non-toxic
EC50 [8]: > 100 µM
Activity (Rattus norvegicus [9]): Non-toxic
Activity (Mus musculus [10]): 34.9%
Activity (Rattus norvegicus [11]): Non-toxic
IC50 (Cytochrome P450 3A4): > 20 µM
IC50 (Cannabinoid receptor 2): 0.549 µM
Activity (Mus musculus [12]): Dose-dependent effect
LD50 [13]: > 2000 mg/kg
EC50 (HEK293): > 100 µM
Activity (Nucleic Acid): Non-toxic
Activity (Mus musculus [14]): 38.06%
clearance [15]: 10.7 mL/min/kg
Tmax [16]: 1 h
Cmax [17]: 1530 ng/mL
Clast (Rattus norvegicus [18]): 50 ng/mL
Clast (Rattus norvegicus [19]): 30 ng/mL
Activity (Mus musculus [20]): Active
Activity (Mus musculus [21]): Active
IC50 [22]: 10.5 µM
Activity (Rattus norvegicus [23]): 125 mg/kg
half-life [24]: 5.3 h
Activity (Rattus norvegicus [25]): Non-toxic
AUC (Rattus norvegicus [26]): 119.9 min/µg/mL
Activity (Mus musculus [27]): Active
Cmax [28]: 2500 ng/mL
EC50 (Vero): > 100 µM
Ratio IC50 [29]: 807
BPR [30]: 58%
bioavailability [31]: 61.7%
EC50 (HCT-116): > 100 µM
IC50 (Cannabinoid receptor 1): 0.000681 µM
IC50 (Cytochrome P450 2D6): > 20 µM
IC50 (Cytochrome P450 2C9): > 20 µM
half-life [32]: 7.11 h
Activity (Rattus norvegicus [33]): Non-toxic
IC50 (Cytochrome P450 1A2): > 20 µM
Activity (Mus musculus [34]): Active
